Measurements from PMC6893557, “Discovery of Non-peptide Small Molecule Allosteric Modulators of the Src-family Kinase, Hck” (Frontiers in Chemistry, 2019).
Where “and” joins values, the source holds several entries; their conditions need not be identical. Equal values may be shown once.

What was measured:
Hck-YEEI = biological target: T1, Hck-YEEI (Homo sapiens, UniProt P08631, Q523E/Q524E/Q525I); assay: SPR binding, near-full-length Hck; conditions: kinetic KD, 1:1 Langmuir model, ± S.E., NI = no interaction, read-out: KD, Hck proteins Hck-YEEI
T1 construct: a near-full-length form of Hck consisting of the SH3, SH2 and kinase domains plus the tyrosine-phosphorylated tail; made in house; host or cells: Sf9 insect cells
T1 sequence (P08631 78-526 Q523E/Q524E/Q525I limits assumed): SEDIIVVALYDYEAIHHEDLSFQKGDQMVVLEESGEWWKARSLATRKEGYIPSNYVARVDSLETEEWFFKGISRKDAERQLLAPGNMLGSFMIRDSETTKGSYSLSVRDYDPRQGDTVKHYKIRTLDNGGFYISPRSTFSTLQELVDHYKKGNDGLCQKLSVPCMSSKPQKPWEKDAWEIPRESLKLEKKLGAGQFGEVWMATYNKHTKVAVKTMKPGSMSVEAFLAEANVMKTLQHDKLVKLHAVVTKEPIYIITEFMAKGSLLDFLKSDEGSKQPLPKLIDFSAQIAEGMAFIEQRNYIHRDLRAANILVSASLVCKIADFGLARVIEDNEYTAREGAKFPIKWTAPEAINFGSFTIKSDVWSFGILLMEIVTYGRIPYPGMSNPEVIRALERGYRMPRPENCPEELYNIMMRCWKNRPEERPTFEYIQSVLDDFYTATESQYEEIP
Protocol: (§1) SPR analysis was performed on a Reichert 4SPR instrument (Reichert Technologies) using four-channel carboxymethyl dextran hydrogel biosensor chips (Reichert #13206066). Recombinant purified Hck proteins were covalently attached to the chip surface via standard amine coupling chemistry (Grover et al., [2015]). Compounds were prepared in 20 mM Tris-HCl, pH 8.3, 150 mM NaCl, and 1% DMSO and flowed past the immobilized proteins and a reference channel at a flow rate of 50 μL/min for 60 s over a range of concentrations. The binding reaction was followed by dissociation for 120 s, followed by surface regeneration using 10 mM HEPES, pH 7.5, containing 150 mM NaCl, 3 mM EDTA, and 0.05% polysorbate 20, at a flow rate of 50 μL/min for 30 s. All sensorgrams were recorded in triplicate, corrected for buffer effects, and fitted with the 1:1 Langmuir binding model using the TraceDrawer software (Reichert).
(§2) Interaction was monitored to equilibrium, followed by a dissociation phase. The resulting sensorgrams were best-fit to determine the kinetic rate constants and corresponding KD values, where KD = koff/kon. As positive controls, we also monitored the interaction of peptide ligands for the SH3 and SH2 domains.

Hck SH32-L = biological target: T2, Hck SH32-L (Homo sapiens, UniProt P08631); assay: SPR binding, Hck SH3-SH2-linker protein; conditions: for Kd: kinetic KD, 1:1 Langmuir model, ± S.E., NI = no interaction, read-out: KD, Hck proteins SH32-L
T2 construct: an SH3-SH2-linker protein lacking the N-terminal unique domain; made in house; host or cells: E. coli
T2 sequence (P08631 72-256 limits assumed): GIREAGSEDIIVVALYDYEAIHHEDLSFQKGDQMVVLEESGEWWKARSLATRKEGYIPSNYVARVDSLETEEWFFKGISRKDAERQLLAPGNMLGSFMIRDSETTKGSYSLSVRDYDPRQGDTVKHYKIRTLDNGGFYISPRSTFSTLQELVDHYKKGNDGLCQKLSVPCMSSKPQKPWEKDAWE
Protocol: as §1, §2

Fgr U-SH32-L = biological target: T3, Fgr U-SH32-L (Homo sapiens, UniProt P09769); assay: SPR binding, Fgr unique-SH3-SH2-linker protein; conditions: kinetic KD, 1:1 Langmuir model, ± S.E., NI = no interaction; for Kd: read-out: KD, Fgr proteins U-SH32-L
T3 construct: the complete regulatory region, consisting of the unique, SH3, and SH2 domains plus the SH2-kinase linker (U32L protein); made in house; host or cells: E. coli
T3 sequence (P09769 1-257 limits assumed): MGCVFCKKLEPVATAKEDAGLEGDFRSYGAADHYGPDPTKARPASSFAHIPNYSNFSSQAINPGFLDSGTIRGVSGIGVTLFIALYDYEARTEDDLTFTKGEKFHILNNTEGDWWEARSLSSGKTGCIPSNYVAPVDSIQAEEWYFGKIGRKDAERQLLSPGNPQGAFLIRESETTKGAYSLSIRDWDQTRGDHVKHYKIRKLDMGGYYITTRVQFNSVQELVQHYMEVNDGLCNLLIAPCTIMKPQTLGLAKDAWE
Protocol: as §1

Fgr-YEEI = biological target: T4, Fgr-YEEI (Homo sapiens, UniProt P09769, G526I/P525E/Q524E); assay: SPR binding, near-full-length Fgr; conditions: kinetic KD, 1:1 Langmuir model, ± S.E., NI = no interaction; for Kd: read-out: KD, Fgr proteins Fgr-YEEI
T4 construct: near-full-length Fgr, lacking only the unique domain and encoding the same modified C-terminal tail as near-full-length Hck (Fgr-YEEI); made in house; host or cells: Sf9 insect cells
T4 sequence (P09769 77-526 Q524E/P525E/G526I): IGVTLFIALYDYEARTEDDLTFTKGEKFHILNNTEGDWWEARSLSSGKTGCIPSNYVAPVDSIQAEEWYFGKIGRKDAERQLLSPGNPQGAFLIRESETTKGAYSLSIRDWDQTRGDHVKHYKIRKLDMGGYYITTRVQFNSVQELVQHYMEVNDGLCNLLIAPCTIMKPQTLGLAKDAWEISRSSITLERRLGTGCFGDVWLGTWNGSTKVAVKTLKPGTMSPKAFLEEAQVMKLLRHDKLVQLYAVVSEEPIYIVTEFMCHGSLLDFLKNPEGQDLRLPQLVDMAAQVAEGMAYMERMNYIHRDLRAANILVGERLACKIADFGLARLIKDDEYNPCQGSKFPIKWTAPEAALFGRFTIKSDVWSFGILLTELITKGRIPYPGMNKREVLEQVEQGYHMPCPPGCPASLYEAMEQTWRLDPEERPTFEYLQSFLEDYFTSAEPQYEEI
Protocol: as §1

Fgr SH32 = biological target: T5, Fgr SH32 (Homo sapiens, UniProt P09769); assay: SPR binding, Fgr dual SH3-SH2 domain protein; conditions: kinetic KD, 1:1 Langmuir model, ± S.E., NI = no interaction; for Kd: read-out: KD, Fgr proteins SH32
T5 construct: including a dual SH3-SH2 domain protein; made in house; host or cells: E. coli
T5 sequence (P09769 77-241 limits assumed): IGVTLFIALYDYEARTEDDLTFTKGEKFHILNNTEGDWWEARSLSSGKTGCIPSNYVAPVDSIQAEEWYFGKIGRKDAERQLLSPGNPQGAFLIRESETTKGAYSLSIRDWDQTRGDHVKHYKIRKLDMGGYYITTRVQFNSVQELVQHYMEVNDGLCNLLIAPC
Protocol: as §1

Hck U-SH32-L (Hck-U32L) = biological target: T6, Hck U-SH32-L (Hck-U32L) (Homo sapiens, UniProt P08631); assay: SPR binding, Hck unique-SH3-SH2-linker protein; conditions: kinetic KD, 1:1 Langmuir model, ± S.E., NI = no interaction, read-out: KD, Hck proteins U-SH32-L
T6 construct: including the N-terminal unique region, followed by the SH3 and SH2 domains, and the SH2-kinase linker; made in house; host or cells: E. coli
T6 sequence (P08631 22-256): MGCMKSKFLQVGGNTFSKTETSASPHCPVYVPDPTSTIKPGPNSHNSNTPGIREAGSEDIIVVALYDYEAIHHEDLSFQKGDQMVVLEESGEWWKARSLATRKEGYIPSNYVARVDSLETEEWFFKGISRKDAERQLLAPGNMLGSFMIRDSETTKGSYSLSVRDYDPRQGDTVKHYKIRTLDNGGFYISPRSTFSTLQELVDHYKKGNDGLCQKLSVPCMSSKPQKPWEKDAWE
Protocol: as §1, §2

Hck U32L protein = biological target: T7, Hck U32L protein (Homo sapiens, UniProt P08631); assay: Fluorescence polarization (FP) assay: displacement of VSL12 probe peptide from Hck-U32L; format: binding; conditions: IC50, inhibition of VSL12 peptide FP signal, Hck-U32L plus fluorescent VSL12 probe; two independent determinations ± S.E., each data point in triplicate
T7 construct: including the N-terminal unique region, followed by the SH3 and SH2 domains, and the SH2-kinase linker; made in house; host or cells: E. coli
T7 sequence (P08631 22-256): as above
Protocol: For the FP assay, the peptide was labeled with 6-carboxyfluorescein at its N-terminus. […] Molecular weight and purity of all peptides were verified by mass spectrometry. Stock solutions (10 mM) were prepared in a 1:1 mixture of DMSO and FP assay buffer (20 mM Tris-HCl, pH 8.3) for the labeled peptide and FP assay buffer for the unlabeled peptide. Stock solutions were stored at −20°C.
FP assays were performed in low-volume black 384-well plates with a non-binding surface (Corning #3676). Peptides and proteins were added to each well in FP assay buffer for a final assay volume of 20 μL and mixed by shaking for 5 min at room temperature. […] Raw fluorescence intensity was also read at the same wavelengths for each assay.
Screening libraries were purchased from ChemDiv (10,000 non-peptide peptidomimetic library) and ChemBridge (50,000 compound diversity library). Each library compound was screened at 50 μM and a final DMSO concentration of 1%. […] Each plate contained 32 wells of the Hck U32L protein plus probe peptide and DMSO as positive controls, and 32 wells of mutant Hck U32L-W118A protein plus probe peptide and DMSO as negative controls. Results for each compound test well were ranked by z score analysis according to the formula: z = (sample FP—mean FPsamples)/standard deviationsamples (Shun et al., [2011]). Potential hit compounds, defined as those that inhibited the FP signal by at least 30% and/or with z scores < −3.0, were then retested in quadruplicate using the FP assay under screening assay conditions.
The target protein for HTS consisted of the entire regulatory region of the p59 form of human Hck, including the N-terminal unique region, followed by the SH3 and SH2 domains, and the SH2-kinase linker (referred to hereafter as the Hck “U32L” protein). […] The principle of the assay is illustrated in Figure 2A. Binding of the probe peptide to the SH3 domain in the target protein slows its rotation, resulting in an increase in the FP signal. Library compounds that interfere with probe binding or stabilize SH3-linker interaction reduce the FP signal, and score as hits.

Kd (Hck-YEEI) | Kd (Hck SH32-L) | Kd (Fgr U-SH32-L) | Kd (Fgr-YEEI) | Kd (Fgr SH32) | Kd (Hck U-SH32-L (Hck-U32L)) | IC50 (Hck U32L protein) | Fold increase of KD with SH3-SH2-linker protein lacking the unique domain vs Hck-U32L (Hck SH32-L) | Reduction of extent of binding with SH3-SH2-linker protein lacking the unique domain vs Hck-U32L (Hck SH32-L) | SMILES | KD, Fgr proteins U-SH32-L (Fgr U-SH32-L) | KD, Fgr proteins Fgr-YEEI (Fgr-YEEI) | KD, Fgr proteins SH32 (Fgr SH32)
103 ± 4 µM | 83 ± 19 µM | 131 ± 6 µM | 141 ± 4 µM | 104 ± 3 µM | 36 ± 4 µM | 52.9 µM and 53.2 µM | – | – | CC(C)Nc1ccnc(NCc2cccnc2Oc2ccc(F)cc2F)n1 [Compound 1] | – | – | –
93 ± 1 µM | 96 ± 2 µM | 70 ± 5 µM | 107 ± 1 µM | 352 ± 1 µM | 30 µM | 11.3 µM and 16.7 µM | about 3 fold | about 50% | Cc1cnc(NCc2ccccc2-n2ccnc2)nc1N(C)C [Compound 2] | – | – | –
180 ± 1 µM | 338 ± 4 µM | 102 ± 4 µM | 64 ± 2 µM | 69 ± 1 µM | 831 µM | 36.1 µM and 59.6 µM | – | – | Cc1cnc(NCc2ccccc2CN2CCCC2=O)nc1N(C)C [Compound 4] | – | – | –

SMILES | Kd (Hck-YEEI) | Kd (Hck SH32-L) | Kd (Fgr U-SH32-L) | Kd (Fgr-YEEI) | Kd (Fgr SH32) | Kd (Hck U-SH32-L (Hck-U32L)) | IC50 (Hck U32L protein) | Fold increase of KD with SH3-SH2-linker protein lacking the unique domain vs Hck-U32L (Hck SH32-L) | Reduction of extent of binding with SH3-SH2-linker protein lacking the unique domain vs Hck-U32L (Hck SH32-L) | KD, Fgr proteins U-SH32-L (Fgr U-SH32-L) | KD, Fgr proteins Fgr-YEEI (Fgr-YEEI) | KD, Fgr proteins SH32 (Fgr SH32)
CNc1ccnc(NCCC23CCCN2CCC3)n1 [Compound 3] | 142 ± 1 µM | 905 ± 18 µM | – | – | – | 55 ± 5 µM | 36.3 µM and 31 µM | – | – | did not bind | did not bind | did not bind
